Take `CNC(=O)c1cc2nc(C(F)(F)F)ccc2cc1NC(=O)c1cc(Br)nn1-c1ncccc1Cl`: the melting point (commonly the temperature of the solid-liquid transition) was in the range of 127 to 129 °C. Under `CC1Sc2c(C(=O)O)c(=O)c3cc(F)c(N4CCC(O)C4)cc3n21` (stereo not drawn) stands 206 to 208 °C; under `CCCCC(CC)COc1cc2c3c(c4cc(OCC(CC)CCCC)c(OCC(CC)CCCC)cc4c2cc1OCC(CC)CCCC)C(=O)C=CC3=O` (stereo not drawn), 105 to 107 °C. As for `NCC(CC(=O)O)C1CCC1` (stereo not drawn), the figure is 115 to 117 °C. In turn, `CCNC(=O)c1cc2c(Cl)ccc(-n3c(=O)cc(C(F)(F)F)n(C)c3=O)c2o1` gave a melting point of 225 to 226 °C. Under `Nc1c(Br)cc(-n2cnnc2)cc1C(F)(F)F` stands 202 to 203 °C. Under `O=C(O)c1c(-c2ccccc2)oc2ccccc2c1=O` stands 298 to 300 °C; under `COC(=O)c1ccc(C2(C(=O)Oc3ccc(C(=O)NO)cc3)CCCCC2)cc1`, 129 to 131 °C; under `CCCOC(=O)C1=C(C)NC(C)=C(C(=O)OC)C1c1ccccc1[N+](=O)[O-]` (stereo not drawn), 127 to 128 °C.

In turn, `CSc1cc(C=O)cc(OCc2ccccc2)c1O` registered a melting point of 117 to 119 °C. As for `Cn1cc(C(=O)NCc2ccc(Cl)cc2)c(=O)c2cc(CN3CCOCC3)cc(C#CCN3CCC(O)CC3)c21`, the figure is 180 to 183 °C; as for `COc1ccc(-c2cnc(NC(=O)Cc3ccccc3)c(Cc3ccccc3)n2)cc1`, 198 to 202 °C; as for `CCCCCCCCCCCCCCCCCCOCC(COC(c1ccccc1)(c1ccccc1)c1ccccc1)OC(=O)N(C)C` (stereo not drawn), 57.5 to 58 °C.

As for `CNCCc1ccc2[nH]cc(S(=O)(=O)c3ccccc3)c2c1`, the melting point lay in the range of 151 to 154 °C. As for `CC(=O)N[C@H]1C(n2cc(Cl)cnc2=O)O[C@H](CO)[C@@H](O)[C@@H]1O` (stereo partly drawn), the figure is 156 to 158 °C.

In turn, `COc1cc(Cl)cc2c1OC(C)(COS(=O)(=O)c1ccc(C)cc1)C2` (stereo not drawn) showed a melting point of 113 to 115 °C.

The compound `COc1ccc(C(Nc2ccccc2)C(=O)OC(C)(C)C)cc1` (racemic) had a melting point of 99 °C. `CC1CCN(CCNc2ccnc3cc(Cl)ccc23)CC1` gave a melting point of 154 to 156 °C.

Turning to `N#Cc1cc(N)nc(SCc2ccc3ccccc3c2)n1`, the melting point lay within 154 to 155 °C.

With `COc1cc2ncc(C#N)c(Nc3ccc(F)c(Cl)c3)c2cc1NC(=O)CC(CN1CCC(O)C1)N1CCC(O)C1` (stereo not drawn), the melting point lay within 139 to 143 °C. Under `O=C1C=C(O[C@@H]2c3cc([N+](=O)[O-])ccc3OC(CF)(CF)[C@H]2O)CC1` (relative stereo) stands 206 to 208 °C; under `CCCCOc1ccc(S(C)(=O)=O)cc1-c1nc2c(CC)n(CCN3CCOCC3)nc2c(=O)[nH]1`, 235 to 238 °C. Under `COc1ccc(C(=O)Nc2ccc(Cl)c(Cl)c2)cc1Nc1cccc(C(F)(F)F)c1` stands 154 to 155 °C; under `Cc1ccccc1C=C1CCn2c1nc1ccc(CO)cc1c2=O`, 222 to 224 °C; under `CS(=O)(=O)c1ccc(-n2nc(C(F)(F)F)cc2-c2ccc(-c3cscn3)cc2)cc1Cl`, 103 to 107 °C. Under `CS(=O)c1ccc2c(c1)OC(C)(C)O2` (stereo not drawn) stands 87 to 88 °C. In turn, `Cc1cc2c(cc1C)C(=O)C(Br)=C(N)C2=O` displayed a melting point of 228 °C. As for `C=C(C)C(=O)OCCN(CCOC(=O)C(=C)C)c1ccc(N=Nc2ccc([N+](=O)[O-])cc2)cc1`, the figure is 88 to 90 °C. Under `COc1ccc(-n2c(C)nc3ccccc32)cc1` stands 121 to 123 °C; under `Cc1ccc(NC(=O)N[C@]2(C3CCCCC3)N=Cc3ccccc3N(C)C2=O)cc1Nc1nnn[nH]1`, 190 to 193 °C; under `Cc1cc(C)c2cccc(OCc3c(Cl)ccc(S(=O)(=O)N4CCC[C@H]4C(=O)N4CCN(C(=O)c5ccc(C(N)=NO)cn5)CC4)c3Cl)c2n1`, 148 to 150 °C. `Cc1nc(-n2ccc(Oc3ccccc3)cc2=O)sc1C(=O)NCc1ccccc1` had a melting point of 67 to 70 °C. Under `CCOc1c(CO)cnc2c1c(C)nn2CC` stands 85 to 86 °C; under `COc1ccc(-c2nnc3c4ccccc4c(O)nn23)cc1`, 307 to 309 °C.

`CN1CCN(Cc2nc3ccccc3[nH]2)CC1` gave a melting point of 179 to 183 °C. Under `O=C(Nc1ccc(C(=O)N2CC(C(=O)O)Cc3ccccc32)cc1)c1cc(Cl)cc(Cl)c1` (stereo not drawn) stands 221 to 223 °C. `COC1C(O)C(CO)OC1n1cnc2c(NC3CCCCC3)ncnc21` (stereo not drawn) gave a melting point of 88 to 91 °C. As for `NC(c1ccccc1)c1nc2ccccc2s1` (stereo not drawn), the figure is 68 to 70 °C. As for `CCn1c(=O)c2[nH]c(/C=C/c3ccc(OC)cc3OC)nc2n(CC)c1=O`, the figure is 279 to 280 °C. As for `Cc1ccc2c(c1)NC(=O)c1cc(C)sc1O2`, the figure is 175 to 179 °C.

With `O=C(N1CCCC1)n1c(CN2CCN(c3ccccn3)CC2)nc2ccccc21`, the melting point is 120 to 121 °C. Under `O=C(O)c1c(Br)ccc(OC(F)(F)F)c1F` stands 112 °C; under `Cc1nc(-c2cccnc2)sc1-c1ccnc(Nc2cccc(CN)c2)n1`, 211 to 213 °C. Under `CCN(CC)C(=O)Cc1c(-c2ccc(F)cc2)nc2c(C)cc(C)nn12` stands 139 to 143 °C; under `Nc1nc(OCCc2ccc(Cl)cc2)nc2c1ncn2C1OC(CO)C(O)C1O` (stereo not drawn), 156 to 159 °C. The compound `CC(C)(CO)Cc1ccc(-c2ccc(CC(C)(C)CO)cc2)cc1` came in with a melting point of 168 to 170 °C. As for `CC(CC(=O)Nc1cc(-c2ccnc3c(C(=O)c4cccs4)cnn23)ccc1F)C(F)(F)F` (stereo not drawn), the figure is 185 to 186 °C; as for `O=S(=O)(c1ccccc1)c1ccc(-c2ccccc2)s1`, 115 to 116 °C. Under `CN(C)C(=O)C1=C(C(=O)Nc2ccc(Br)cc2F)CCCC1` stands 83 to 85 °C; under `O=C(O)C(CCc1ccccc1)CC(CCc1ccccc1)C(=O)O` (stereo not drawn), 95 to 105 °C; under `CCN(CC)C(=O)c1cc2ccccc2c(-c2cccc(Cl)c2)n1`, 116 °C. As for `COC(=O)c1ccc(SCc2c(O[C@H](Cn3ccnc3)c3ccccc3)ccc3c2CCCC3=O)cc1`, the figure is 75 °C. `COc1ccc(-c2c(N(C)C(C)C)c(=O)c2=O)cc1` gave a melting point of 109 to 115 °C. Under `CCCCCS(=O)(=O)NC(=O)CCc1ccc(OCCOCCOC)cc1Oc1ncc(C(F)(F)F)cc1Cl` stands 76 to 77.5 °C; under `NCC(=O)NC(Cc1cccnc1)c1ccccc1` (stereo not drawn), 93.5 to 94.5 °C; under `Cc1ccc(-c2nc(-c3nn(Cc4ccccc4F)c4ncccc34)ncc2C#N)cc1`, 229 °C. As for `Nc1nc(-c2ccccc2)nc2c1ncc(=O)n2C1CC(O)C(CO)O1` (stereo not drawn), the figure is 169 to 172 °C; as for `N#Cc1ccc2c(c1)CCC2=O`, 123 to 125 °C. `Nc1nc(NCCNc2ccccc2)nc(-c2cc(Cl)ccc2Cl)n1` came in with a melting point of 139 to 141 °C. As for `O=C1N(c2ccc(Cl)c(Cl)c2)CCON1c1ccccc1`, the figure is 112 to 113 °C; as for `O=C(SC(Cn1ccnc1)c1ccc(Cl)cc1Cl)c1ccccc1` (stereo not drawn), 115 to 116 °C; as for `FC(F)(F)c1cc(Nc2nc3ccccc3o2)ccc1Cl`, 199 to 200 °C. `Cc1ccc2c(c1)C1(CCN(CCCC(=O)c3ccc(F)cc3)C1)CC2O` (stereo not drawn) displayed a melting point of 172 to 174 °C. For `CC/C=C\C=C/CCCCCCCCCC=O`, the melting point is 7 to 8 °C. As for `N#Cc1ccc(OCCCCN2C(=O)c3ccccc3C2=O)cc1`, the figure is 129 to 130 °C; as for `O=C(O)Cc1nc(-c2ccc(F)cc2)oc1-c1cccs1`, 208 to 209 °C. As for `COCOc1cc(F)ccc1-c1cc(-c2cccc(N)c2)c(C#N)c(NC(=O)c2ccco2)n1`, the figure is 204 to 206 °C. Under `Cc1nc2sc3cc(F)ccc3n2c1CO` stands 230 to 235 °C; under `COc1ccc(-c2nc(NC3=NCCN3)sc2-c2ccc(OC)cc2)cc1`, 211 to 214 °C; under `Cc1cc(-c2ncn3c(C(F)(F)F)cc(-c4cccc(C(F)(F)F)c4)nc23)ccn1`, 234 °C. The compound `Cc1csc2c1c(-c1ccccc1)nc(=O)n2C` displayed a melting point of 275 to 280 °C. Under `Cc1ccccc1CNc1cccc(-c2ccnc3c(C(=O)c4cccs4)cnn23)c1` stands 177 to 179 °C; under `OC1(CC2CO2)c2ccccc2CCc2ccccc21` (stereo not drawn), 116 to 118 °C; under `O=C1CC(O)c2ccc(F)cc21` (stereo not drawn), 73 to 76 °C. Under `CCOc1ccc(C(=O)Nc2ccccc2)cc1N(c1ccccc1)C(F)(F)F` stands 184 to 185 °C; under `O=c1oc2c(Br)cccc2cc1S(=O)(=O)Nc1ccc(Br)cc1`, 206 to 208 °C. As for `O=[N+]([O-])c1ccc(C2OCc3cc(Br)ccc3O2)cc1` (stereo not drawn), the figure is 163 to 164 °C; as for `CCC1C(=O)Nc2c(C(=O)c3ccc(Cl)cc3)cccc21` (stereo not drawn), 140 to 145 °C. The compound `C#CCN1C(=O)CCC1C(N)=O` (stereo not drawn) had a melting point of 145 to 147 °C. As for `O=CC(=C(Cl)c1ccc(Cl)cc1Cl)c1ccc(Cl)cc1`, the figure is 128 °C.

Compound `CC(C)c1ccc(C(=O)NCCCCN2CCN(C(c3ccccc3)c3ccccc3)CC2)c(O)n1` showed a melting point of 184 to 186 °C. For the compound `CCCCN(C)CCc1ccc(Nc2ncc3c(n2)-c2ccccc2C(c2cccc(Br)c2)C3)cc1` (stereo not drawn), the melting point lay in the range of 66 to 68 °C. As for `O=[N+]([O-])c1ccc2c(c1)CCC(CO)O2` (stereo not drawn), the melting point was 96.5 °C. Under `Cc1cc(C(C)c2ccccc2)c(O)c(-n2nc3ccc(Cl)cc3n2)c1` (stereo not drawn) stands 113 to 115 °C. As for `Cc1c(S(=O)(=O)Nc2ccc(-c3nc(C(=O)O)cs3)cc2S(C)(=O)=O)sc2ccc(F)cc12`, the figure is 257 to 258 °C; as for `CC=CCN1CCNC1=C[N+](=O)[O-]`, 82 to 85 °C. Compound `Cc1nc(N)nc(N)c1/C=C/C(C)(C)c1ccc(C(F)(F)F)cc1` came in with a melting point of 182 to 185 °C. As for `Cc1cccc(-c2[nH]nnc2-c2ccc3c(c2)NC(=O)CO3)n1`, the figure is 224 °C.
